In test [1] the target is T1, potassium ion channel hERG (Homo sapiens, UniProt Q12809).
T1 construct: expressed in transfected cells; host or cells: Chinese hamster ovary K1 (CHO)
Description: Assay 5 hERG assay (patch clamp, CHO cells over-expressing hERG). It counts as cell-based. As to conditions: SyncroPatch 384PE, room temperature, geometric mean, read-out: Assay 5 (hERG Hu CHO if EPh CR-Syncro) GMean IC50. In short, it runs like this: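 hERG currents recorded by automated patch clamp at room temperature in CHO-K1 cells, 6-point cumulative concentrations. SyncroPatch runs used KF-based internal (pH 7.2) and NMDG-containing external solution (pH 7.4), 0.33% DMSO; QPatchII runs used 2% or 0.4% DMSO. Only wells meeting seal-resistance and current-size criteria kept.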

The target of test [2] is GSK3β (Glycogen synthase kinase-3 beta) (Homo sapiens, UniProt P49841). Description: Assay 6 GSK3β assay (ThermoFisher Z-Lyte FRET). It counts as biochemical. Particulars: ATP Conc: 10 μM, geometric mean; read-out: Assay 6 (GSK3β FRET-Z-Lyte Cr) GMean IC50. In short, it runs like this: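 Z-Lyte FRET: 0.22-0.92 ng kinase with 2 μM Ser/Thr 09 peptide in HEPES pH 7.5, MgCl2, EGTA, 60 min at room temperature, then 60 min development. Compounds in 1% DMSO, 10-point 3-fold series from 10 μM; sigmoidal dose-response fit.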

In test [3] the target is T2, PCSK9 (Homo sapiens, UniProt Q8NBP7, G670E/V474I). The experiment in a line: biochemical.
Test [4] concerns the target T3, PCSK9 (Homo sapiens, UniProt Q8NBP7). The experiment in a line: Assay 2 Biophysical human PCSK9 assay (SPR, Biacore). The format is binding. Details: biotinylated human PCSK9 (31-692)-Avi-His6; His6 (C). As to conditions: single-cycle kinetics, 30° C., geometric mean, read-out: Assay 2 (PCSK9 BIAcore DBA Cr) GMean Kd. The protocol: The SPR binding experiments were performed on a Biacore S200 optical biosensor unit at 30° C. A Series S Sensor Chip SA that is designed to bind biotinylated molecules for interaction analysis in Biacore systems was equilibrated at room temperature prior to use. The running buffer for protein tethering and subsequent ligand binding experiments was 10 mM HEPES pH 7.4, 150 mM NaCl, 0.05% (v/v) Tween 20 pH 7.4.
For the surface tethering of PCSK9, biotinylated human PCSK9 (31-692)-Avi-His6 at a concentration of 0.5 mg/mL was used. Prior to the surface tethering, the surface was exposed to a solution of 50 mM NaOH, 500 mM NaCl via 3 consecutive injections of this solution with a contact time of 60 s and a flowrate of 10 μL min^−1 to remove non-conjugated streptavidin. The PCSK9 protein was diluted to a concentration of 20 μg/mL using running buffer and injected with a contact time of 180-300 s and a flowrate of 10 μL min^−1 over a single flow channel (typically flow channel 2 or flow channel 4) with the aim to achieve protein capture levels of >5000 response units (RU). Remaining biotin binding sites were blocked via 2 consecutive injections of a 10 μM D-biotin solution in running buffer with a contact time of 60 s and a flowrate of 10 μL min^−1 over all flow-channels. Flow-channels 1 and 3 typically served as a reference surface throughout the subsequent binding experiments.
The binding experiments were all performed at a flow rate of 30 PL min^−1 and by employing the method of single-cycle kinetics. This approach involves the sequential injection of a compound concentration series without regeneration steps. A contact time between 90-150 s was selected, which was followed by a 40 min dissociation phase to allow for a proper estimation of the dissociation rate constant. Test compounds were delivered in DMSO at a concentration of 10 mM and a digital dispenser HP D300 was used to set up the compound concentration series using 6 concentrations. The tested concentrations have been 30, 100, 300, 1000, 3000 and 10000 nM. Prior to injecting any compound, the surfaces were equilibrated by injecting running buffer over them in three separate pulses. The data collection rate was set to 10 Hz.
The raw sensorgrams of the compound injections were first subjected to reference subtraction (subtracting the signal from flow channel 1 and/or 3 from the signal from channels 2 and/or 4 respectively) and then blank subtraction (subtracting the signal from injecting DMSO controls from the reference subtracted data). The resulting double-referenced sensorgrams were then fitted using a 1:1 binding interaction model using the manufactures software package to extract kinetic- and affinity data. Active compounds have been defined by creating a detectable binding signal at the highest compound concentration ([…]) of 3 RUs. Kinetic- and affinity data on active compounds are only provided for those compounds where the binding signal at the highest compound concentration ([…]) is 50% of the theoretical maximum binding signal for a 1:1 binding interaction (Rmax, typically between 15-20 RUs) in order to enable a proper fitting of the data.
Target sequence in this assay (Q8NBP7 31-692): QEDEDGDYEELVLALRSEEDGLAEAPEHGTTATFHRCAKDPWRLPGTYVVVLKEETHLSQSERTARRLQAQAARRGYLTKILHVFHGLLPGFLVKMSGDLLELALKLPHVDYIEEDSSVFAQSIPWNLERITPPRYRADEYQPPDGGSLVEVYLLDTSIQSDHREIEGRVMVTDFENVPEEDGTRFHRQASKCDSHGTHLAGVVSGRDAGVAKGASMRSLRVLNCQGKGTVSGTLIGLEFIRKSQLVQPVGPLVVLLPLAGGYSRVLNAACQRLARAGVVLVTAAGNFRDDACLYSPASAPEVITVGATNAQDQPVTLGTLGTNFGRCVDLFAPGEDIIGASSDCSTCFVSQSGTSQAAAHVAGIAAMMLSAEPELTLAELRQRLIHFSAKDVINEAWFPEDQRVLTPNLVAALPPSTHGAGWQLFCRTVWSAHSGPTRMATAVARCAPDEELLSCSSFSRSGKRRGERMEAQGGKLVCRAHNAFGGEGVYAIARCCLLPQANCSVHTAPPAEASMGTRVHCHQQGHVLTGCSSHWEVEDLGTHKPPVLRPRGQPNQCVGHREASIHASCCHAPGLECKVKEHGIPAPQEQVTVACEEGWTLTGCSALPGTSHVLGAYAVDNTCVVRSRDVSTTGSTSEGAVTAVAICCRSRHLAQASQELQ

The target of test [5] is T3, PCSK9. More on the design: host or cells: patients. Particulars: clinical trials, patients; alirocumab compared to placebo; cited from earlier work.
Target sequence in this assay (Q8NBP7 153-692): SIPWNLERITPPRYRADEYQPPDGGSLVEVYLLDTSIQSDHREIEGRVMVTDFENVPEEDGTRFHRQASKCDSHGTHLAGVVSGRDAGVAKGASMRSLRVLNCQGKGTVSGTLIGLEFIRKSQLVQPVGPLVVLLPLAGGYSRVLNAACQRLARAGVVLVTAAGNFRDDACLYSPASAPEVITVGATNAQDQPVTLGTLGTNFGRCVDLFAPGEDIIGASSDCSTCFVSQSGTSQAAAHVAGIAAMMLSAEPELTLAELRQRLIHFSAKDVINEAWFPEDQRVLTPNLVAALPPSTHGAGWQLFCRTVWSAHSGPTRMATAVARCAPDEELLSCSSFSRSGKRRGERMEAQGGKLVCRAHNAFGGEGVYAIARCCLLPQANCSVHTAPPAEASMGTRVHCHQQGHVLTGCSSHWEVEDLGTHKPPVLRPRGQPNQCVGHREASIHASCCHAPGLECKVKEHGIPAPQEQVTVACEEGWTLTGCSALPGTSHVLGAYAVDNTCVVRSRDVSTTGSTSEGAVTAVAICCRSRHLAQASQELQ
Test [6] has as its target T2, PCSK9. Description: Assay 3 PCSK9 LDL-C uptake assay in HepG2 cells. As to conditions: 125 nM PCSK9, pHrodo Red-LDL, read-out: Assay 3 LDL uptake potency. It counts as cell-based. Details: TEV site (C); His6 (C); host or cells: added to HepG2 (ATCC #HB-8065). In short, it runs like this:
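HepG2 cells were plated for 24 h, then exposed for 24 h at 37 °C to compounds (half-log series, 10 μM top) with 125 nM exogenous PCSK9. pHrodo Red-LDL ([…]) uptake was then imaged by fluorescence at 4 h and 24 h. Signal was normalized as % effect between DMSO and 100 nM evolocumab, with a four-parameter logistic fit.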

pEC50, pIC50, pKd: −log10 of the molar value.

T2 sequence (Q8NBP7 with tags, fused parts or gaps V474I/G670E): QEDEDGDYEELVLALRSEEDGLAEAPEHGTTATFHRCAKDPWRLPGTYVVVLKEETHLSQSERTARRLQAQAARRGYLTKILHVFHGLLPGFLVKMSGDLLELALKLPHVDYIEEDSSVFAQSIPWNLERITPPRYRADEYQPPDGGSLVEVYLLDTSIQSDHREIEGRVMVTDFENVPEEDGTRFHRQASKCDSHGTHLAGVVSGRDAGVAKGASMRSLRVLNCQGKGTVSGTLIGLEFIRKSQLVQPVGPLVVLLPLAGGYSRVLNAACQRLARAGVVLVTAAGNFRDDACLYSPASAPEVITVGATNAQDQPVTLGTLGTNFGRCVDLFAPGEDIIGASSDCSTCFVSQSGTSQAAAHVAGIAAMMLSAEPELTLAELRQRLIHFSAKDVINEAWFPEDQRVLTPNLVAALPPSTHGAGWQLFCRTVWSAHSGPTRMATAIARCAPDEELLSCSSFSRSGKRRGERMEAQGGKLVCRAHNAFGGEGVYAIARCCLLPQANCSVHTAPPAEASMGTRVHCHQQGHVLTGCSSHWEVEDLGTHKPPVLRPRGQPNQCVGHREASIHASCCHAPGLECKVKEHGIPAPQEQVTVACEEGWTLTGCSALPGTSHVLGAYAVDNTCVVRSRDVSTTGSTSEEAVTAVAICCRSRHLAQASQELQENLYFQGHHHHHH
Chain of GSK3β (Glycogen synthase kinase-3 beta) (P49841 whole entry): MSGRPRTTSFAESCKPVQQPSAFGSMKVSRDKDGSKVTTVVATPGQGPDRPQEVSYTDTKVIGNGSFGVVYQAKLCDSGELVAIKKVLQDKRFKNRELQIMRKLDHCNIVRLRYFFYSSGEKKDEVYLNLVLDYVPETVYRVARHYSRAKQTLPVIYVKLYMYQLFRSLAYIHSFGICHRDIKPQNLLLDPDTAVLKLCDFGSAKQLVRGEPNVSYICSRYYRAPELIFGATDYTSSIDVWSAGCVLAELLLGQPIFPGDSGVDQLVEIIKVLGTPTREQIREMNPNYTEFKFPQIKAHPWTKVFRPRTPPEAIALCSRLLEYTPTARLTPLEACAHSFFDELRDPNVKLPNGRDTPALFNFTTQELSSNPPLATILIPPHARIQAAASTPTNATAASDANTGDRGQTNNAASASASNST
T1 sequence (Q12809 whole entry): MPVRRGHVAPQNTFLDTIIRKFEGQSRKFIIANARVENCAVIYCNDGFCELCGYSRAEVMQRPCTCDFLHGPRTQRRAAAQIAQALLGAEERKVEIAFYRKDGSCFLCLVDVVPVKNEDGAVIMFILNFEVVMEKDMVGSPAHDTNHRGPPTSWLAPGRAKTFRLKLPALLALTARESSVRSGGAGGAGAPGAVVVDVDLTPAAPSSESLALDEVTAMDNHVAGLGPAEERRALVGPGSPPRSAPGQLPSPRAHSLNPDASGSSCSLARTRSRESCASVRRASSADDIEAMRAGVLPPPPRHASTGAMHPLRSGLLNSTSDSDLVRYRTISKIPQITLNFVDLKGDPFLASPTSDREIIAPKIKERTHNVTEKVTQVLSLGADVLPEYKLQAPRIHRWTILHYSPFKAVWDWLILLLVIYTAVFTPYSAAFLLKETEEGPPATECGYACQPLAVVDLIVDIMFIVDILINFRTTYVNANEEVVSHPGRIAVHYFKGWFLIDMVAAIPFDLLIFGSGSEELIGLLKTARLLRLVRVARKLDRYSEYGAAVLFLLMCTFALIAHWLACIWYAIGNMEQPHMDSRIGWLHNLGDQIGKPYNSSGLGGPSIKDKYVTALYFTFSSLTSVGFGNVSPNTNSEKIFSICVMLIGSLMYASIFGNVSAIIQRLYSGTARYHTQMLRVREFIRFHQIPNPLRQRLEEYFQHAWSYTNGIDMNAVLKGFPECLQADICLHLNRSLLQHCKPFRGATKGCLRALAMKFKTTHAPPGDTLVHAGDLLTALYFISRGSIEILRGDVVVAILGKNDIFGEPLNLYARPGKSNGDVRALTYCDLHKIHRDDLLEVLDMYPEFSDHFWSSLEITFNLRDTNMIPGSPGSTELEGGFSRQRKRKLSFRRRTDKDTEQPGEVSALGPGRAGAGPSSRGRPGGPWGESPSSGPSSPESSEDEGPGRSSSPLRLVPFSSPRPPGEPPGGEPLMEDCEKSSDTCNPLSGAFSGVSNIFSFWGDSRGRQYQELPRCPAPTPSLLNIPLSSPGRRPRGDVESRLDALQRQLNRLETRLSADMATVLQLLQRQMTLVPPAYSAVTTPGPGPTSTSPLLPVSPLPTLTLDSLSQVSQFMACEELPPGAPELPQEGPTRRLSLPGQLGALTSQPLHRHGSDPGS

Regarding `Cc1nnc(N[C@H]2CC[C@H](Nc3ccc(-n4ccccc4=O)cn3)C2)nc1C` [Example 127, 6′-(((1S,3S)-3-((5,6-Dimethyl-1,2,4-triazin-3-yl)amino)cyclopentyl)amino)-2H-[1,3′-bipyridin]-2-one], the negative logarithm of the IC50 (pIC50) in test [1] was less than 4.40; in test [2], less than 5.00; at PCSK9 [3], 6.71. In addition, on PCSK9 [4], the pKd was 6.61.

`O=C(NCCO)c1cnc(N[C@H]2CC[C@H](Nc3ccc(-n4ccccc4=O)cn3)C2)nn1` [Example 72, N-(2-Hydroxyethyl)-3-(((1S,3S)-3-((2-oxo-2H-[1,3′-bipyridin]-6′-yl)amino)cyclopentyl)amino)-1,2,4-triazine-6-carboxamide]: the pIC50 in test [1] was less than 4.40; in test [2], less than 5.00; on PCSK9 [3] it was 6.69. Besides, at PCSK9 [4], the pKd was 6.77.

For the compound `Cc1cnnc(N[C@H]2CC[C@H](Nc3ccc(-n4ccccc4=O)cn3)C2)n1` [Example 126, 6′-(((1S,3S)-3-((5-Methyl-1,2,4-triazin-3-yl)amino)cyclopentyl)amino)-2H-[1,3′-bipyridin]-2-one], the pIC50 in test [1] is less than 4.40; in test [2], less than 5.00; against PCSK9 [3] it was 6.13. Moreover, the pKd at PCSK9 [4] was 6.02.

With `CCNC(=O)c1cnc(N[C@H]2CC[C@H](Nc3ccc(-n4ccccc4=O)cn3)C2)nn1` [Example 73, N-Ethyl-3-(((1S,3S)-3-((2-oxo-2H-[1,3′-bipyridin]-6′-yl)amino)cyclopentyl)amino)-1,2,4-triazine-6-carboxamide], the results for the pIC50 (in test [1]; in test [2]; on PCSK9 [3]) were less than 4.40, less than 5.00 and 7.12, respectively. Also, on PCSK9 [4], the pKd is 7.32.

Take `Cc1cnc(N[C@H]2CC[C@H](Nc3ccc(-n4ncc5cccnc54)cn3)C2)nn1` [Example 310, (1S,3S)—N′-(5-(1H-Pyrazolo[3,4-b]pyridin-1-yl)pyridin-2-yl)-N^3-(6-methyl-1,2,4-triazin-3-yl)cyclopentane-1,3-diamine]: the pIC50 in test [1] is 4.46; in test [2], less than 5.00; on PCSK9 [3] it was 7.66. Further, the pKd at PCSK9 [4] is 7.72.

Take `CN(C)C(=O)c1cnc(N[C@H]2CC[C@H](Nc3ccc(-n4ccccc4=O)cn3)C2)nn1` [Example 76, N,N-Dimethyl-3-(((1S,3S)-3-((2-oxo-2H-[1,3′-bipyridin]-6′-yl)amino)cyclopentyl)amino)-1,2,4-triazine-6-carboxamide]: the values for the pIC50 (in test [1]; in test [2]; against PCSK9 [3]) were less than 4.40, less than 5.00 and 6.31, respectively. In addition, the pKd at PCSK9 [4] is 6.90.

For the compound alirocumab, the “decrease in LDL levels” value in the test with PCSK9 [5] was “about 50%”.

`Cc1cnc(N[C@H]2CC[C@H](Nc3ccc(-n4ncc5ccccc54)cn3)C2)nn1` [Example 311, (1S,3S)—N′-(5-(1H-Indazol-1-yl)pyridin-2-yl)-N^3-(6-methyl-1,2,4-triazin-3-yl)cyclopentane-1,3-diamine]: the pIC50 in test [1] was 5.12; in test [2], less than 5.00; against PCSK9 [3] it was 8.26. Also, the pKd on PCSK9 [4] was 8.16.

As for `NC(=O)c1cnc(N[C@H]2CC[C@H](Nc3ccc(-n4ccccc4=O)cn3)C2)nn1` [Example 74, 3-(((1S,3S)-3-((2-Oxo-2H-[1,3′-bipyridin]-6′-yl)amino)cyclopentyl)amino)-1,2,4-triazine-6-carboxamide], the pIC50 in test [1] was less than 4.40; in test [2], 5.08; on PCSK9 [3] it was 7.07. Also, the pKd on PCSK9 [4] is 7.10.

On to `O=C(NCC(F)F)c1cnc(N[C@H]2CC[C@H](Nc3ccc(-n4ccccc4=O)cn3)C2)nn1` [Example 71, N-(2,2-Difluoroethyl)-3-(((1S,3S)-3-((2-oxo-2H-[1,3′-bipyridin]-6′-yl)amino)cyclopentyl)amino)-1,2,4-triazine-6-carboxamide], for which the pIC50 in test [1] is less than 4.40; in test [2], less than 5.00; on PCSK9 [3], 7.34. Further, the pKd at PCSK9 [4] was 7.20.

For the compound `O=c1ccc(-c2nnn[nH]2)cn1-c1ccc(N[C@H]2CC[C@H](Nc3ncc(C4CC4)nn3)C2)nc1` [Example 124, 6′-(((1S,3S)-3-((6-Cyclopropyl-1,2,4-triazin-3-yl)amino)cyclopentyl)amino)-5-(1H-tetrazol-5-yl)-2H-[1,3′-bipyridin]-2-one], the results for the pIC50 (in test [1]; in test [2]; against PCSK9 [3]) were less than 4.40, 5.97 and 9.00, respectively. On PCSK9 [6], the pEC50 was 7.00.

The values are drawn from US20240228469A1, “PCSK9 INHIBITORS AND METHODS OF USE THEREOF” (AstraZeneca AB, priority 2022, published 2024).
